Values of other authors, collected in US4386074A, “LRF Antagonists” (The Salk Institute for Biological Studies, priority 1981, dated 1983).
[ ]: non-standard residue; d: D form. pGlu = O=C1CC[C@@H](C(=O)O)N1

System: release of LH and other gonadotropins by the pituitary gland
Details: D-Ala6 versus Gly6 des-His2 peptide

[pGlu]WSY[dA]LRPG-NH2
potency as inhibitor of the release of gonadotropins relative to the same peptide with Gly in the 6-position: 4 times
